# Experimental data published in patent publication US20240390434A1, “PROBIOTIC ENHANCERS AND USES THEREOF” (Blis Technologies Limited, priority 2021, published 2024).
# Like-named read-outs stand apart in the source and are kept apart here.
# Key:
# M. catarrhalis TW1 = test: Deferred antagonism assay, producer S. salivarius K12; assay type: cell-based
# Description: (§1) 1-2 producer strain colonies were transferred from a stock plate into 900 μL of suspension solution using a fresh cotton swab. Following this, suspensions were vortexed, and a sample was inoculated onto solid culture media using a fresh cotton swab. The inoculation was a streak that runs diametrically across the agar plate in a 1.5 cm wide strip. The plate was then incubated. Following incubation all visible colonies were removed by swabbing them from the agar surface. The plates were then treated with chloroform by dispensing 2 ml of chloroform onto 4 cm×4 cm piece of cloth and sealing the inverted agar plate on top for 30 minutes. The plates were then air dried for 30 minutes following chloroforming. 1-2 indicator strain colonies were then transferred from a stock plate into complementary suspension solution. The suspensions were then vortexed, and a sample was inoculated onto the same agar surface. These samples were streaked in a perpendicular direction to the initial producer streak.
# (§2) Each indicator streak was prepared with fresh a suspension containing cells from a corresponding stock plate containing the indicator strain of interest. Indicator strains suspension samples were transferred using a fresh cotton swab. Results were measured by qualitatively reviewing the subsequent (if any) sizes of the zones of inhibition (ZOI) of indicator strain colony growth. A positive result is when there is a distinctive reduction or complete inhibition of indicator colony growth on the culture medium.
# (§3) CABCa agar plates containing various concentrations of saccharide were prepared according to the methods described in Method 1. Producer strains were transferred from stock agar plates into 900 μL THB using a fresh cotton swab. A plastic spread plater was cut to approximately 1.2 cm width and then dipped into ethanol and left to air dry to ensure sterility. A 100 μL sample of the producer strain suspension was then dispensed onto the agar surface in a straight line running diametrically across the agar surface in (approximately) 20 μL spots. The spots were spaced approximately 1.5 cm apart from each other. The plastic spreader was then used to evenly distribute the spots across the agar surface in a 1.5 cm wide strip. This step was taken to ensure an even producer streak was inoculated onto the agar surface and provided an approximate measure of the initial inoculum concentration. Separate plastic spreaders were used for samples containing different producer strains. The samples were left to soak into the agar surface until there was no visible liquid remaining on the agar surface (approximately 20 minutes). Following producer streak preparations, the deferred antagonism assay protocol was followed as per Method 2. Results were recorded by measuring the size of the zone of inhibition (ZOI) in mm.
# (§4) A dose response assay was carried out according to method 3 above, except a 1.2 cm streak was used. For the individual saccharide testing the pH of the producer streak was adjusted after the growth of producer to change the acidic conditions.
# salB = assay type: cell-based, S. salivarius K12; details: K12
# Description: Method: CABCa agar plates were prepared either with or without 2.5% w/w raffinose, 0.5% w/w galactose, combined 2.5% w/w raffinose and 0.5% w/w galactose, 0.5% w/w glucose or 2.5% w/w glucose by the addition of 0.5% (w/v) calcium carbonate to solid CAB agar in bottles and then melted by autoclaving at 110° C. for 10 mins. Once cooled, filter sterilised solutions of the saccharides or distilled water were added and mixed and then 20 ml pipetted into petri dishes.
# A S. salivarius K12 raw ingredient suspension was prepared in PBS containing approx. 1×10^8cfu/ml. 100p of this suspension was spread evenly onto control and test agar plates. Plates were incubated at 37° C. with 5% CO2 for approx, 19 hrs.
# Bacterial growth from each plate was collected using a sterile cotton swab and resuspended into 1 ml PBS in a screw capped tube. The bacterial cells were then pelleted by centrifugation at 13,000 rpm for 1 minute at 4° C. The supernatant was removed, and the cell pellet was resuspended in 1 ml of TRIzol reagent. The bacterial cell suspension was transferred into a 2 ml screw-capped tube containing 0.1 mm Zirconia/silicon beads. […]
# The cDNA samples from K12 raw ingredient grown on the CABCa control plates and CABCa supplemented with the various saccharides were then analysed by qPCR for the levels of gene expression of the following genes: salA, salB, salQ and ureC. […]
# [1] = system: representative microorganisms from skin, dental, oral, ENTR diseases; test: Dose response assay with dairy free K12 or M18; assay type: cell-based; details: 2.5% w/w raffinose vs equal weight percentage of saccharides; pH adjusted
# Description: as §3, with “mm. […]” for “mm.”
# indicator strains = test: Deferred antagonism assay, producer S. salivarius M18: total strains inhibited; assay type: cell-based
# Description: as §1, §2, §3, §4
# A deferred antagonism assay was conducted using K12 or M18 raw ingredient suspended in Todd Hewitt broth (THB). This was spread as a 1.2 cm streak containing approximately 1-2×10^6 cfu down the middle of a CABCa control or CABCa galactose supplemented test plate. After 18 hrs growth at 37° C. with 5% CO2, bacterial growth was removed, and the pH of the agar in the initial streak was measured and adjusted to a pH of 6.5-7.5 using 0.5M sodium carbonate pH11 before sterilizing the agar surface using chloroform vapor. Bacterial test strains were suspended in i-THB before being swabbed across the plates perpendicular to the initial streak. Plates were incubated for a further 18 hrs incubation at 37° C. with 5% CO2 before measuring (mm) any zones of inhibition for each test strain, […]
# [2] = system: bacterial indicator strains; test: Split plate inhibitory activity of K12 in commercial powder Daily Defence Junior; assay type: cell-based; details: raffinose 2.5% w/w, galactose 0.5% w/w, or combination
# Description: Method: Formulations for testing were prepared as follows: • 1. Control: Commercial powder formulation (Daily Defence Junior) containing S. salivarius K12 • 2. Galactose 0.5% w/w was added to the commercial powder and mixed thoroughly to achieve a uniform mixture. • 3. Raffinose 2.5% w/w was added to the commercial powder and mixed thoroughly to achieve a uniform mixture.
# The following method was used to measure the inhibitory effect of S. salivarius K12 in the context of the powder formulations. Exactly 40 mL of 50° C. molten CAB agar containing 0.5% calcium carbonate (CABCa) was poured in agar plates (120×120 mm). Once the agar was set upon cooling, it was split in the middle and half of the agar gel was removed. The other half was left on the plate as Blank agar marked as side “A”. Approximately, 0.8 g of each combination (DDJ powder with (1) galactose, (2) raffinose or (3) combination of raffinose and galactose) was mixed with 1 mL of sterile distilled water and vortexed to produce a homogeneous suspension. […] The pH of the producer side was measured and adjusted to 6.5-7.5 by soaking into the agar a solution of 0.5 M sodium carbonate pH 11. […] The zone of inhibition of each indicator strain was measured (in mm) using a ruler. Results were also read using a macroscope to establish presence of small colonies or complete inhibition zones.
structure (smiles),measurement,setting,value
"OC[C@H]1O[C@H](OC[C@H]2O[C@H](O[C@]3(CO)O[C@H](CO)[C@@H](O)[C@@H]3O)[C@H](O)[C@@H](O)[C@@H]2O)[C@H](O)[C@@H](O)[C@H]1O [Raffinose, D-(+) Raffinose pentahydrate]",change in ZOI size M. catarrhalis TW1,"M. catarrhalis TW1; 2.0% (w/v) raffinose, peak",13 mm
same,Zone of inhibition M. catarrhalis TW1,M. catarrhalis TW1; Raffinose 1.7% wt,0 mm
same,Zone of inhibition M. catarrhalis TW1,"M. catarrhalis TW1; Raffinose 1.7% wt, pH adjusted",0 mm
same,Zone of inhibition M. catarrhalis TW1,M. catarrhalis TW1; Raffinose 2.5% wt,10 mm
same,Zone of inhibition M. catarrhalis TW1,"M. catarrhalis TW1; Raffinose 2.5% wt, pH adjusted",0 mm
same,Zone of inhibition M. catarrhalis TW1,M. catarrhalis TW1; Raffinose 3.3% wt,0 mm
same,Zone of inhibition M. catarrhalis TW1,"M. catarrhalis TW1; Raffinose 3.3% wt, pH adjusted",0 mm
same,Zone of inhibition M. catarrhalis TW1,M. catarrhalis TW1; Raffinose 5% wt,5 mm
same,Zone of inhibition M. catarrhalis TW1,"M. catarrhalis TW1; Raffinose 5% wt, pH adjusted",0 mm
same,Zone of inhibition M. catarrhalis TW1,M. catarrhalis TW1; Raffinose 10% wt,6 mm
same,Zone of inhibition M. catarrhalis TW1,"M. catarrhalis TW1; Raffinose 10% wt, pH adjusted",0 mm
same,increase in gene expression of salB relative to no sugar control,salB; 2.5% w/w sugar in CABCa agar,241 fold
same,inhibitory action of dairy free K12 or M18,[1],enhanced inhibitory action
same,Total number of strains inhibited,indicator strains; Raffinose 1.7% wt,6
same,Total number of strains inhibited,"indicator strains; Raffinose 1.7% wt, pH adjusted",6
same,Total number of strains inhibited,indicator strains; Raffinose 2.5% wt,7
same,Total number of strains inhibited,"indicator strains; Raffinose 2.5% wt, pH adjusted",6
same,Total number of strains inhibited,indicator strains; Raffinose 3.3% wt,6
same,Total number of strains inhibited,"indicator strains; Raffinose 3.3% wt, pH adjusted",6
same,Total number of strains inhibited,indicator strains; Raffinose 5% wt,7
same,Total number of strains inhibited,"indicator strains; Raffinose 5% wt, pH adjusted",6
same,Total number of strains inhibited,indicator strains; Raffinose 10% wt,2
same,Total number of strains inhibited,"indicator strains; Raffinose 10% wt, pH adjusted",1
same,inhibitory activity of S. salivarius K12 in commercial powder vs control,[2],increased
"O=C[C@H](O)[C@@H](O)[C@@H](O)[C@H](O)CO [Galactose, D-galactose]",change in TW1 ZOI size,"M. catarrhalis TW1; 1.5% galactose (w/v), peak",12 mm
same,increase in gene expression of salB relative to no sugar control,salB; 0.5% w/w sugar in CABCa agar,641 fold
same,inhibitory action of dairy free K12 or M18,[1],enhanced inhibitory activity
same,Total stains inhibited,indicator strains; Galactose 0.5% w/w,5/7
same,Total stains inhibited,indicator strains; Galactose 1.25% w/w,4/7
same,Total stains inhibited,indicator strains; Galactose 1.7% w/w,1/7
same,Total stains inhibited,indicator strains; Galactose 2.5% w/w,2/7
same,Total stains inhibited,indicator strains; Galactose 3.3% w/w,5/7
same,Total stains inhibited,indicator strains; Galactose 5% w/w,2/7
same,inhibitory activity of S. salivarius K12 in commercial powder vs control,[2],increased
